The source of these data is patent US20090062243A1, “Lupane-Type Triterpenoids Modified at 30-Position and Analogues Thereof” (ADVANCED LIFE SCIENCES, INC., priority 2007, published 2009).

The subject of one data set is SK-MEL-2 (melanoma). Put plainly: MTS cell viability assay, SK-MEL-2. Format: cell-based. To be noted: Homo sapiens, SK-MEL-2, cells incubated 72 h. The method in brief: (§1)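 Cells at 1×10^4/well treated with serially diluted compounds for 72 h at 37 °C (120 h for OVCAR-3), in triplicate. MTS/PMS reduction read as absorbance at 490 nm after 1.5–4 h, background-subtracted; viability expressed as % of DMSO-treated cells.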

The next data set relates to A-375 (melanoma). Description: MTS cell viability assay, A-375. To be noted: Homo sapiens, A-375, cells incubated 72 h. It is filed as cell-based. The procedure, abridged:
as §1
A general note: Tetrazolium dyes change colour on reduction, which living cells bring about.

The test system of another data set is Daoy. Put plainly: MTS cell viability assay, Daoy. To be noted: Homo sapiens, Daoy, cells incubated 72 h. Format: cell-based. The procedure, abridged:
as §1

The test system of another data set is LN-229 (glioblastoma). Put plainly: MTS cell viability assay, LN-229. It is filed as cell-based. To be noted: Homo sapiens, LN-229, cells incubated 72 h. The method in brief: as §1
The subject of data set [1] is OVCAR-3 (ovarian carcinoma). Put plainly: MTS cell viability assay, OVCAR-3. The note with it: Homo sapiens, OVCAR-3, 120 h for the OVCAR cell lines. Format: cell-based. On the procedure: (§2) Cells were plated, the evening before treatment, for each treatment on 96-well plates (1×10^4 cells/well) in 100 μL volume per well. Analog solutions were prepared by diluting each test compound in DSMO (10 mM) with the appropriate cell growth media for each individual cell line, or in “Universal Media” if several cell lines were to be assayed in parallel, immediately prior to cell treatment. Universal Media consisted of 5 mL sodium pyruvate (100× liquid stock, MediaTech), 5 mL glucose (100×, 45% liquid stock, MediaTech), 5 mL Penicillin/Streptomycin (100× liquid stock, MediaTech), 10 mL sodium bicarbonate (50× liquid stock, MediaTech), 25 mL Fetal Calf Serum, 1.25 mL insulin (4 mg/mL, Gibco) and […] RPMI media with 2 mM L-glutamine for a total volume of 500 mL.
(§3) Cells were treated by aspirating plating media from each well and adding 80 μL of betulinic acid (control) or each analog solution in serial dilutions to the adherent cells. All treatments were performed in triplicate. Growth media (80 μL) was added to 3 blank wells (no cells) to measure background from the growth media. Growth media alone (no DMSO or test compound) was added to 3 wells containing cells to measure the baseline MTS activity. Vehicle (DMSO) control in serial dilutions, added to cells, was also included to monitor basal toxicity from DMSO. Cells were incubated at 37° C. for 72 h, or 120 h for the OVCAR cell lines. MTS reagent (per 96-well plate) were prepared by combining 2 mL of MTS working solution (Cell Titer AQueous Non-Radioactive Cell Proliferation Assay, Promega, cat#G1112), 100 μL of 0.92 mg/mL phenazine methosulfate/Dulbecco's PBS and 2.1 mL growth media. MTS reagent (40 μL) were added to each well and incubated at 37° C. for 1.5 to 4 h. Plates were gently shaken by hand until solution in each well appeared homogenous. Absorbances at 490 nm were measured on a Wallac Victor II plate reader at multiple time points following the addition of MTS reagent for each plate. Triplicate absorbance (490 nm) measurements were averaged following background (no cell) subtraction for each drug concentration. Percent Cell Viability was calculated for each drug concentration using the following equation:
(§4) {[Absorbance(analog treated)]/[Absorbance(DMSO treated)]}×100%
Cytotoxicity dose response for the triterpenoid derivatives synthesized in SK-MEL-2 (melanoma), A-375 (melanoma), Daoy (glioblastoma), LN-229 (glioblastoma), OVCAR-3 (ovarian carcinoma), HT-29 (colon carcinoma), MCF-7 (breast carcinoma) cell lines using the standard MTS assay is summarized in Table 1. In Table 1, compounds 22a-d and compounds 23a-c refer to structures 22 and 23 in Scheme 5, respectively. Compounds 24aa-an and 24ba-bq refer to structure 24 in Scheme 6. Compounds 26a-e refer to structure 26 in Scheme 6. Compounds 36a-c refer to structure 36 in Scheme 10.

The subject of a further data set is HT-29 (colon carcinoma). Put plainly: MTS cell viability assay, HT-29. Format: cell-based. To be noted: Homo sapiens, HT-29, cells incubated 72 h. The procedure, abridged:
as §1

For the next data set, the system named is MCF-7 (breast carcinoma). Description: MTS cell viability assay, MCF-7. Format: cell-based. The note with it: Homo sapiens, MCF7, cells incubated 72 h. The procedure, abridged:
as §1

Another data set has as its system CEM. Description: MTS cell viability assay, CEM. Format: cell-based. The note with it: Homo sapiens, CCRF-CEM, cells incubated 72 h. As for the experimental part: as §2, §3, §4
The subject of the next data set is H-146. Put plainly: MTS cell viability assay, H-146. It is filed as cell-based. To be noted: Homo sapiens, NCI-H146, cells incubated 72 h. As for the experimental part: as §2, §3, §4

What is called IC50 is the concentration that inhibits the measured activity by half. A high value points to a need for much substance. The term melting point denotes the temperature, or range, at which the solid turns liquid. In turn, `C=C(CO)[C@@H]1CC[C@]2(CO)CC[C@]3(C)[C@H](CC[C@@H]4[C@@]5(C)CCC(N)C(C)(C)[C@@H]5CC[C@]43C)[C@@H]12` (some centres unmarked) [Compound 24ab] had a melting point of 189 to 199 °C. In addition, half-maximal inhibition in the data set with SK-MEL-2 (melanoma) (IC50) was put at 34 µM. Moreover, the IC50 in the data set with A-375 (melanoma) turned out to be 6 µM. This compound gave a concentration for half-maximal inhibition (IC50) in the data set with Daoy of 31 µM. This compound also showed a concentration for half-maximal inhibition (IC50) with LN-229 (glioblastoma) of 17 µM. The same compound had an IC50 in data set [1] of 14 µM. In addition, half-maximal inhibition in the data set with HT-29 (colon carcinoma) (IC50) required 17 µM. Besides, in the data set on MCF-7 (breast carcinoma), the IC50 came out at 15 µM.
Consider `C=C(CO)[C@@H]1CC[C@]2(CO)CC[C@]3(C)[C@H](CC[C@@H]4[C@@]5(C)C=CC(=O)C(C)(C)[C@@H]5CC[C@]43C)[C@@H]12` [Compound 30], for which the IC50 was greater than 75 µM with SK-MEL-2 (melanoma); 61 µM with A-375 (melanoma); greater than 75 µM in the data set with Daoy; 68 µM in the data set on LN-229 (glioblastoma); greater than 75 µM in [1]; 67 µM in the data set with HT-29 (colon carcinoma). In addition, the half-maximal inhibitory concentration (IC50) in the data set on MCF-7 (breast carcinoma) is greater than 75 µM; with CEM it was 16 µM; with H-146, 66 µM.
Turning to `C=C(C=O)[C@@H]1CC[C@]2(COC3CCCCO3)CC[C@]3(C)[C@H](CC[C@@H]4[C@@]5(C)C=CC(=O)C(C)(C)[C@@H]5CC[C@]43C)[C@@H]12` (some centres unmarked) [Compound 34], the 50% inhibitory concentration (IC50) in the data set with SK-MEL-2 (melanoma) came to 2 µM; in the data set with A-375 (melanoma) it was 1 µM; in the data set with Daoy, 6 µM; in the data set with LN-229 (glioblastoma) it was 6 µM; in data set [1], 2 µM; in the data set on HT-29 (colon carcinoma), 2 µM. Besides, the IC50 was 8 µM in the data set on MCF-7 (breast carcinoma), 1 µM in the data set on CEM and 2 µM in the data set on H-146.
On to `C=C(C=O)[C@@H]1CC[C@]2(CO)CC[C@]3(C)[C@H](CC[C@@H]4[C@@]5(C)C=CC(=O)C(C)(C)[C@@H]5CC[C@]43C)[C@@H]12` [Compound 35], for which the half-maximal inhibitory concentration (IC50) is 14 µM in the data set on SK-MEL-2 (melanoma); 6 µM with A-375 (melanoma); 17 µM in the data set with Daoy; 58 µM in the data set with LN-229 (glioblastoma); 6 µM in [1]; 8 µM in the data set with HT-29 (colon carcinoma). The figures for the IC50 in the data set with MCF-7 (breast carcinoma), in the data set with CEM and with H-146 were 32 µM, 2 µM and 5 µM, respectively.
